For data set [1], the target named is T1, ICOS-ICOSL (Homo sapiens) (UniProt O75144+Q9Y6W8). Briefly: (§1) Inhibition of ICOS/ICOSL (unknown origin) interaction by TR-FRET assay. The data set is classed as protein assay.
In data set [2] the target is T2, Inducible T-cell costimulator (Homo sapiens, UniProt Q9Y6W8).
T2 sequence (Q9Y6W8 whole entry): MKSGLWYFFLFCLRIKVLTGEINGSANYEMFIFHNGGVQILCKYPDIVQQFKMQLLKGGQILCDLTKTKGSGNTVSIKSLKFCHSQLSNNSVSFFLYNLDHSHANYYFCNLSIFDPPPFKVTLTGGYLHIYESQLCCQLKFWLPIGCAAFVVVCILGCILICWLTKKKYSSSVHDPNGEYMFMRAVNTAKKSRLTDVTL
Put plainly: Binding affinity to ICOS (unknown origin) assessed as dissociation constant.

Data set [3] deals with T1, ICOS-ICOSL (Homo sapiens). Put plainly: (§2) Inhibition of ICOS/ICOSL (unknown origin) interaction by ELISA method. Type of data set: protein assay.
In data set [4] the target is T3, ICOS-ICOSL (Homo sapiens, UniProt O75144+Q9Y6W8).
T3 sequence (O75144 whole entry): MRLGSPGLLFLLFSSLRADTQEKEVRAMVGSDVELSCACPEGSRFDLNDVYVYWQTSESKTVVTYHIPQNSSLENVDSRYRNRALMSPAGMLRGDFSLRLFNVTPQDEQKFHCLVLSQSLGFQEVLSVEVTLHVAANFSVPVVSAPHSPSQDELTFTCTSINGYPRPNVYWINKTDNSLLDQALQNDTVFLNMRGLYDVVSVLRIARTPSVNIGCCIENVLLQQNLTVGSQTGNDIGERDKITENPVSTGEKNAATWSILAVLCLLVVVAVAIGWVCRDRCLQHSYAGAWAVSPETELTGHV
T3 sequence (Q9Y6W8 whole entry): T2 sequence (Q9Y6W8 whole entry)
The data set is described as §1. The data set is classed as protein assay.

Data set [5] is described as follows: Stability in rat liver microsomes assessed as half life. The data set is classed as ADME, Microsome.
The nature of data set [6]: Lipophilicity, log D of compound at pH 7.4 by shake-flask method. The data set is classed as physicochemical. Conditions: buffer.
The species named for data set [7] is Homo sapiens. Briefly: Inhibition of VISTA/VSIG-3 (unknown origin) protein-protein interaction at 50 uM by TR-FRET assay.
A short description of data set [8]: Stability in human plasma assessed as parent compound remaining measured after 2 hrs. Conditions: read-out: Stability. The data set is classed as ADME, cell-free.
Data set [9] is filed under the species Homo sapiens. Put plainly: Inhibition of LAG-3/FGL1 (unknown origin) protein-protein interaction at 50 uM by TR-FRET assay.
Data set [10] is described as follows: Apparent permeability of the compound in human Caco-2 cells across basolateral to apical side. Type of data set: ADME, cell-based. On the technique in general: Caco-2 cells form a polarised layer with tight junctions and transporters.
Data set [11] in a line: Stability of the compound in stimulated intestinal fluid assessed as half life at pH 6.5. The data set is classed as ADME. The conditions noted are these: simulated intestinal fluid.
Data set [12] in a line: Stability of the compound in stimulated gastric fluid assessed as half life at pH 1.6. The data set is classed as ADME. The conditions noted are these: simulated gastric fluid.
Data set [13] can be described thus: Apparent permeability of the compound in human Caco-2 cells across apical to basolateral side. Type of data set: ADME, cell-based.
The species entered for data set [14] is Homo sapiens. Briefly: Inhibition of CTLA4/B-7 (unknown origin) protein-protein interaction at 50 uM by TR-FRET assay. (TR-FRET usually uses a lanthanide donor and a delayed reading to cut background.)
In data set [15] the target is T3, ICOS-ICOSL. The description is as §2. Type of data set: protein assay.
For data set [16], the species on record is Homo sapiens. Briefly: Inhibition of PD-1/PD-L1 (unknown origin) protein-protein interaction at 50 uM by TR-FRET assay.

The source made the active and inactive calls. The rule behind the calls is not given here. Where a SMILES comes first, the peptide text is derived from it. Bridges are numbered along the chain shown (N, C = ends).

One may read the Kd as the equilibrium constant for the complex coming apart. Take `CC[C@H](C)[C@@H]1NC(=O)[C@H](CO)NC(=O)[C@H](Cc2ccc(O)cc2)NC(=O)[C@H](Cc2ccc(O)cc2)NC(=O)[C@@H]2CSSC[C@H](NC(=O)[C@H](CC(C)C)NC(=O)[C@@H]3CCCN3C(=O)[C@@H]3CCCN3C1=O)C(=O)N[C@@H](CC(C)C)C(=O)N1CCC[C@H]1C(=O)N[C@@H](Cc1ccccc1)C(=O)NCC(=O)N[C@@H](CCCNC(=N)N)C(=O)N2` (cyclo(CLPFGRCYYSIPPL); disulfide 1-7): the inhibition entry in data set [1] and in data set [3] was “inactive” throughout. The Kd in [2] is 4.47 µM.
One may read the IC50 as the concentration that inhibits the measured activity by half. Read a low IC50 as greater potency. Consider `CC(C)C[C@@H]1NC(=O)[C@H](Cc2ccccc2)NC(=O)[C@H](Cc2ccccc2)NC(=O)[C@@H]2CCCN2C(=O)[C@@H]2CCCN2C(=O)[C@H](Cc2ccc(O)cc2)NC(=O)[C@@H]2CCCN2C(=O)[C@H](C(C)C)NC(=O)[C@@H]2CCCN2C(=O)[C@H](Cc2ccc(O)cc2)NC(=O)[C@@H]2CSSC[C@H](NC1=O)C(=O)N[C@@H](CC(C)C)C(=O)N1CCC[C@H]1C(=O)N[C@@H](Cc1ccccc1)C(=O)N[C@@H](Cc1ccc(O)cc1)C(=O)N2` (cyclo(CLPFYCYPVPYPPFFL); disulfide 1-6), for which it took 3.68 µM to reach half-maximal inhibition against ICOS-ICOSL [4] (IC50). The inhibition entry in [3] was “inactive”.
By half-life is commonly meant the time in which the quantity being followed falls by half. In general, logD refers to lipophilicity at a set pH, counting ionised and neutral species. For orientation: Papp B→A means the apparent permeability from the basolateral to the apical side of a cell layer. Usually Papp A→B stands for how fast a substance crosses the layer from the apical side. On to `CC(C)C[C@H](NC(=O)[C@@H]1CSSC[C@H](NC(=O)[C@@H](N)Cc2ccc(O)cc2)C(=O)N[C@@H](Cc2ccc(O)cc2)C(=O)N2CCC[C@H]2C(=O)N[C@@H](C(C)C)C(=O)N2CCC[C@H]2C(=O)N[C@@H](Cc2ccc(O)cc2)C(=O)N2CCC[C@H]2C(=O)N2CCC[C@H]2C(=O)N[C@@H](Cc2ccccc2)C(=O)N[C@@H](Cc2ccccc2)C(=O)N[C@@H](CC(C)C)C(=O)N1)C(=O)N[C@@H](Cc1ccccc1)C(=O)N[C@@H](CC(N)=O)C(=O)O` (H-YCYPVPYPPFFLCLFN-OH; disulfide 2-13), for which the half-inhibitory concentration (IC50) at ICOS-ICOSL [4] stood at 4.48 µM; against ICOS-ICOSL [15], 1.87 µM. Moreover, the half-life in [5] is 18.3 h; in data set [11], 20.4 h; in data set [12] it was 6.5 h. In data set [6], this compound came in with a pH-dependent lipophilicity (logD) of 2.94. Besides, the inhibition result in the data set listed under Homo sapiens [7], in the data set filed under Homo sapiens [9], in the data set listed under Homo sapiens [14] and in the data set listed under Homo sapiens [16] was “inactive” in each case. In addition, in data set [8], the remaining at 2 h was 98.2%. Besides, the Papp B→A in data set [10] came to 10.8 ×10⁻⁶ cm/s. For the same compound, the Kd in data set [2] was 36.7 µM. Moreover, in data set [13], the Papp A→B was 6.72 ×10⁻⁶ cm/s.
